The values below come from PMC10507961, “Development of an amoxicillin-radix scutellaria extract formulation and evaluation of its pharmacokinetics in pigs” (BMC Veterinary Research, 2023).

SMILES strings stand for the structures. In brackets after ≈: the same amount, converted by molar mass.

Data set [1] is described as follows: Moisture absorption percentage test. It is filed as physicochemical. How it is done: Sample dried to a constant weight (1 g) was placed in a 5 mL flat weighing bottle, shaken gently to evenly distribute the sample, weighed accurately, put it in a dryer containing supersaturated sodium chloride solution (the weighing bottle is opened), and weighed after 24 h (n = 3). The moisture absorption percentage was calculated according to the following formula: Moistureabsorptionpercentage(%)=weightaftermoistureabsorption-weightbeforemoistureabsorption/weightbeforemoistureabsorption×100%

The next data set is described as follows: Angle of repose test. Format: physicochemical. To be noted: fixed funnel method. The procedure:
The fixed funnel method was used to measure the angle of repose. A funnel was fixed at a height of 3 cm above coordinate paper (the paper was placed on a horizontal table), and materials were added through the funnel until the top of the accumulated cone came into contact with the bottom of the funnel. The cone diameter was measured, and the angle of repose was calculated with the ratio of the distance between the funnel and paper to the cone radius as the tangent.

In another data set the test system is Escherichia coli. The experiment in a line: Antibacterial susceptibility test (MIC), E. coli. The settings on record: 15 strains, MIC range, read-out: AMO MIC. It is filed as cell-based. The procedure:
(§1) Fifteen strains of E. coli, 16 strains of […], and 16 strains of […] were provided by the Department of Pharmacology and Toxicology of China Agricultural University. The minimum inhibitory concentration (MIC) of AMO and RSE was tested in the bacteria mentioned above; this method was previously reported by Jiarong Cao, et al.. Amoxicillin or baicalin was added to a sterile 96-well plate with multiple dilutions from low to high concentrations from the first well to the tenth well, with 100 μL per well. 100 μL of bacterial solution was added to a concentration of 1 × 10^6 CFU/mL. 200 μL of the bacterial solution was added to the 11th well as positive control, and 200 μL of broth was added to the 12th well as a negative control. The MIC test of quality control bacteria was carried out at the same time in each test. The 96-well plate was placed in a 37 ℃ incubator for 18 to 24 h, and the results were observed and recorded. The experiment was repeated three times.

Another data set relates to Streptococcus. As to the kind of experiment: Antibacterial susceptibility test (MIC), Streptococcus. It is filed as cell-based. The settings on record: 16 strains, MIC range. The procedure:
as §1

For a further data set, the system named is Salmonella. As to the kind of experiment: Antibacterial susceptibility test (MIC), Salmonella. It is filed as cell-based. The settings on record: read-out: AMO MIC. How it is done:
The minimum inhibitory concentration (MIC) of AMO and RSE was tested in the bacteria mentioned above; this method was previously reported by Jiarong Cao, et al..
Amoxicillin or baicalin was added to a sterile 96-well plate with multiple dilutions from low to high concentrations from the first well to the tenth well, with 100 μL per well. 100 μL of bacterial solution was added to a concentration of 1 × 10^6 CFU/mL. 200 μL of the bacterial solution was added to the 11th well as positive control, and 200 μL of broth was added to the 12th well as a negative control. The MIC test of quality control bacteria was carried out at the same time in each test. The 96-well plate was placed in a 37 ℃ incubator for 18 to 24 h, and the results were observed and recorded. The experiment was repeated three times.

Data set [2] can be described thus: Second pharmacokinetic study in pigs (three doses of AMO-RSE powder). It is filed as in vivo. The settings on record: p.o. AMO-RSE powder, tested dose range (AMO 10–30 mg/kg, BCL 5–15 mg/kg). The text has this: Twelve healthy Landrace × Large White hybrid pigs, half male and half female, with an average body weight of 15 ± 3.2 kg (range 11–18 kg), were randomly divided into two groups (three male and three female pigs in each group) for pharmacokinetics experiments and were purchased from JuCong agriculture, Nanning, Guangxi. Commercial feed and water free of antibiotics and target drugs were freely available to the pigs housed individually in 12 pig pens. After the experiment, the pigs were released.
Pig jugular vein blood was collected in an anticoagulant tube, and centrifuged at 3000 rpm for 10 min, and the separated plasma was stored at -20 ℃. The plasma sample was placed at room temperature for natural thawing, and it was mixed evenly with a vortex, 1 mL of the plasma sample was accurately measure and placed it in a 10 mL centrifuge tube with a cover. […]
Using HPLC to measured the content of AMO. […] The limits of detection and quantification of amoxicillin in the plasma were 0.03 and 0.1 µg/ml, respectively.
The content of BCL were measured using HPLC. […] The limits of detection and quantification of […] in the plasma were 0.03 and 0.1 µg/ml, respectively. […]
The concentrations of AMO and BCL in plasma at each time point are expressed as the arithmetic mean ± SD. The pharmacokinetic parameters were calculated by using noncompartmental analysis based on statistical moment theory. […]

Turning to `OC[C@H]1OC(O)[C@H](O)[C@@H](O)[C@@H]1O` (some centres unmarked) [glucose], the “moisture absorption percentage, rank among five excipients” value in data set [1] is recorded as “lowest”. Also, the angle of repose in “Angle of repose test” is recorded as 41.44 °.
By MIC is commonly meant the lowest concentration that inhibits growth of the organism. Regarding `CC1(C)S[C@@H]2[C@H](NC(=O)[C@H](N)c3ccc(O)cc3)C(=O)N2[C@H]1C(=O)O` [AMO, Amoxicillin], the MIC lay in the range of 1 to 8 mg/L (≈ 2.74 to 21.9 µM) in the data set with Escherichia coli, 0.5 to 64 mg/L (≈ 1.37 to 175 µM) with Streptococcus (read-out: AMO MIC) and 0.25 to 32 mg/L (≈ 0.684 to 87.6 µM) with Salmonella. For the same compound, in the data set on Streptococcus, the “AMO MIC” value was 1 to 128 mg/L. In data set [2], the “dose linearity of pharmacokinetics” value is given as “linear pharmacokinetic properties”.
`O=C(O)[C@H]1O[C@@H](Oc2cc3oc(-c4ccccc4)cc(=O)c3c(O)c2O)[C@H](O)[C@@H](O)[C@@H]1O` [BCL, baicalin]: the “dose linearity of pharmacokinetics” value in data set [2] is recorded as “linear pharmacokinetic properties”.
